Test results published in the NIST ThermoML archive (doi:10.1016/j.jct.2014.04.016).
Values joined by “and” are separate entries in the source; they are usually repeats but may differ in a detail not shown here. Identical values can stand only once. Numbers after ± are expanded uncertainties.

Test: xn = mol fraction of the nth substance listed
Conditions: 100 kPa, Liquid; for viscosity: Concentric cylinders viscometry; for mass density: Vibrating tube method; for electrical conductivity: Alternating current cell with electrodes

CCCCCCCCOS(=O)(=O)[O-].CCn1cc[n+](C)c1 [1-ethyl-3-methylimidazolium octyl sulfate] + O
Conditions	electrical conductivity	mass density	viscosity
293.1 K, x1 = 0.1197	–	1069.2 ± 1 kg/m3	–
293.1 K, x1 = 0.1402	–	1072.6 ± 1 kg/m3	–
293.1 K, x1 = 0.1605	–	1076.1 ± 1 kg/m3 and 1076.2 ± 1 kg/m3	–
293.1 K, x1 = 0.2632	–	1085.4 ± 1 kg/m3	–
293.1 K, x1 = 0.3076	–	1087.6 ± 1 kg/m3	–
293.1 K, x1 = 0.3555	–	1089.2 ± 1 kg/m3	136.9 ± 9.7 mPa·s
293.1 K, x1 = 0.4108	–	1091.1 ± 1 kg/m3	154.7 ± 11 mPa·s
294.1 K, x1 = 0.1402	–	1072 ± 1 kg/m3	66.11 ± 4.3 mPa·s
294.1 K, x1 = 0.1766	1 S/m	–	–
294.1 K, x1 = 0.2119	0.826 S/m and 0.828 S/m	–	–
294.1 K, x1 = 0.2632	0.585 ± 0.012 S/m	–	–
295.1 K, x1 = 0.0803	1.81 ± 0.038 S/m	–	–
295.1 K, x1 = 0.1402	–	1071.3 ± 1 kg/m3	62.58 ± 4 mPa·s
295.1 K, x1 = 0.1766	1.03 S/m	–	–
295.1 K, x1 = 0.2119	0.85 S/m and 0.852 S/m	–	–
295.1 K, x1 = 0.2632	0.606 ± 0.014 S/m	–	–
295.1 K, x1 = 0.3555	0.387 S/m and 0.389 S/m	–	–
295.1 K, x1 = 0.4108	0.32 ± 0.007 S/m	–	–
296.1 K, x1 = 0.1402	–	1070.6 ± 1 kg/m3	59.29 ± 3.8 mPa·s
296.1 K, x1 = 0.1605	1.18 S/m	–	–
296.1 K, x1 = 0.1766	1.05 S/m and 1.06 S/m	–	–
296.1 K, x1 = 0.2119	0.873 S/m and 0.875 S/m	–	–
296.1 K, x1 = 0.2632	0.628 ± 0.013 S/m	–	–
296.1 K, x1 = 0.3076	0.531 S/m and 0.533 S/m	–	–
296.1 K, x1 = 0.4688	0.258 ± 0.006 S/m	–	–
297.1 K, x1 = 0.1402	–	1069.9 ± 1 kg/m3	56.2 ± 3.6 mPa·s
297.1 K, x1 = 0.1766	1.08 S/m	–	–
297.1 K, x1 = 0.2119	0.9 ± 0.019 S/m	–	–
297.1 K, x1 = 0.2632	0.651 ± 0.015 S/m	–	–
298.1 K, x1 = 0.0401	2.16 S/m	–	–
298.1 K, x1 = 0.0586	2.14 S/m	–	–
298.1 K, x1 = 0.0803	1.96 ± 0.04 S/m	–	–
298.1 K, x1 = 0.1197	1.56 S/m	1065.5 ± 1 kg/m3 and 1065.9 ± 1 kg/m3	46.3 ± 2.9 mPa·s and 46.17 ± 2.9 mPa·s
298.1 K, x1 = 0.1402	1.38 S/m	1069.3 ± 1 kg/m3	53.29 ± 3.4 mPa·s
298.1 K, x1 = 0.1605	1.25 S/m	1072.8 ± 1 kg/m3 and 1072.7 ± 1 kg/m3	59.39 ± 3.8 mPa·s and 57.63 ± 3.7 mPa·s
298.1 K, x1 = 0.1766	1.11 S/m	–	–
298.1 K, x1 = 0.2119	0.925 S/m and 0.921 S/m	–	–
298.1 K, x1 = 0.2632	0.675 S/m and 0.669 S/m	1081.9 ± 1 kg/m3 and 1081.7 ± 1 kg/m3	80.58 ± 5.3 mPa·s and 82.1 ± 5.4 mPa·s
298.1 K, x1 = 0.3076	0.573 S/m and 0.572 S/m	1084.1 ± 1 kg/m3	89.42 ± 5.9 mPa·s
298.1 K, x1 = 0.3555	0.434 S/m and 0.435 S/m	1085.8 ± 1 kg/m3	104.1 ± 7 mPa·s and 104 ± 7 mPa·s
298.1 K, x1 = 0.4108	0.358 S/m and 0.355 S/m	1087.7 ± 1 kg/m3	118 ± 8.1 mPa·s
298.1 K, x1 = 0.4688	0.287 S/m and 0.254 S/m	–	–
298.1 K, x1 = 0.5001	0.241 S/m and 0.236 S/m	–	–
303.1 K, x1 = 0.1605	–	1069.3 ± 1 kg/m3	45.8 ± 2.9 mPa·s
303.1 K, x1 = 0.2632	–	1078.5 ± 1 kg/m3	62.15 ± 4 mPa·s
303.1 K, x1 = 0.3076	–	1080.7 ± 1 kg/m3	69.23 ± 4.5 mPa·s
303.1 K, x1 = 0.3555	–	1082.4 ± 1 kg/m3	80.49 ± 5.3 mPa·s
303.1 K, x1 = 0.4108	–	1084.3 ± 1 kg/m3	91.61 ± 6.1 mPa·s
303.1 K, x1 = 0.5001	0.295 ± 0.006 S/m	–	–
308.1 K, x1 = 0.1605	–	1065.9 ± 1 kg/m3	35.89 ± 2.2 mPa·s
308.1 K, x1 = 0.2632	–	1075 ± 1 kg/m3	48.72 ± 3.1 mPa·s
308.1 K, x1 = 0.3076	–	1077.2 ± 1 kg/m3	54.47 ± 3.4 mPa·s
308.1 K, x1 = 0.3555	–	1079 ± 1 kg/m3	63.27 ± 4 mPa·s
308.1 K, x1 = 0.4108	–	1080.9 ± 1 kg/m3	72.28 ± 4.7 mPa·s
313.1 K, x1 = 0.1197	–	1055.4 ± 1 kg/m3	23.09 ± 1.4 mPa·s
313.1 K, x1 = 0.1605	–	1062.4 ± 1 kg/m3	28.53 ± 1.8 mPa·s
313.1 K, x1 = 0.2632	–	1072.9 ± 1 kg/m3	40.23 ± 2.5 mPa·s
313.1 K, x1 = 0.3076	–	1072.2 ± 1 kg/m3	43.26 ± 2.7 mPa·s
313.1 K, x1 = 0.3555	–	1075.6 ± 1 kg/m3	50.46 ± 3.2 mPa·s
313.1 K, x1 = 0.4108	–	1077.6 ± 1 kg/m3	57.88 ± 3.7 mPa·s
313.1 K, x1 = 0.5001	0.42 ± 0.008 S/m	–	–
318.1 K, x1 = 0.3076	–	1070.1 ± 1 kg/m3	36.02 ± 2.2 mPa·s
318.1 K, x1 = 0.3555	–	1072.2 ± 1 kg/m3	40.79 ± 2.5 mPa·s
318.1 K, x1 = 0.4108	–	1074.2 ± 1 kg/m3	46.97 ± 2.9 mPa·s
323.1 K, x1 = 0.3555	–	1068.8 ± 1 kg/m3	33.03 ± 2 mPa·s
323.1 K, x1 = 0.4108	–	1070.8 ± 1 kg/m3	38.58 ± 2.4 mPa·s
323.1 K, x1 = 0.5001	0.58 ± 0.012 S/m	–	–
